Source: ChEMBL document CHEMBL4007467, “Effects of 6-paradol, an unsaturated ketone from gingers, on cytochrome P450-mediated drug metabolism” (Bioorg Med Chem Lett, 2017)

Experiments:
Type in all cases: ADME
CYP1A2 [1] = biological target: T1, CYP1A2 (Homo sapiens, UniProt P05177); assay: Inhibition of CYP1A2 in human liver microsomes assessed as enzyme-mediated metabolite formation at 1 uM using phenacetin as substrate incubated for 5 mins followed by NADPH addition measured after 30 mins by LC-MS/MS analysis relative to control; design: scale not given: the % may be the effect or the level left; settings: probe phenacetin, read-out: Activity
T1 sequence (P05177 whole entry): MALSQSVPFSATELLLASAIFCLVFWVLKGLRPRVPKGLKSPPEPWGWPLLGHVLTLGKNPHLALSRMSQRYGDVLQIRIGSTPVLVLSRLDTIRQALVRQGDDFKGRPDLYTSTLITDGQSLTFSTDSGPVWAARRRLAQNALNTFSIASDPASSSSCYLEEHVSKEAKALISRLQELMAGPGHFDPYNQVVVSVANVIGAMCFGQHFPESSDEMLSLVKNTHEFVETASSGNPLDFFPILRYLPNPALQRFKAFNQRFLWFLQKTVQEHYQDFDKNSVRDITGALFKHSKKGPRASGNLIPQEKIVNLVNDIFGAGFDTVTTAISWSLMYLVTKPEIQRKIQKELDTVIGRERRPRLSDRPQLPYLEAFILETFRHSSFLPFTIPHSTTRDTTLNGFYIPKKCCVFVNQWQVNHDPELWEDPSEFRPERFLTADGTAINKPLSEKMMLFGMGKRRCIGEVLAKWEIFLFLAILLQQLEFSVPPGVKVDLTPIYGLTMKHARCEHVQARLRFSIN

CYP2B6 [2] = biological target: T2, CYP2B6 (Homo sapiens, UniProt P20813); assay: Inhibition of CYP2B6 in human liver microsomes assessed as enzyme-mediated metabolite formation at 1 uM using bupropion as substrate incubated for 5 mins followed by NADPH addition measured after 30 mins by LC-MS/MS analysis relative to control; design: scale not given: the % may be the effect or the level left; settings: probe bupropion, read-out: Activity
T2 sequence (P20813 whole entry): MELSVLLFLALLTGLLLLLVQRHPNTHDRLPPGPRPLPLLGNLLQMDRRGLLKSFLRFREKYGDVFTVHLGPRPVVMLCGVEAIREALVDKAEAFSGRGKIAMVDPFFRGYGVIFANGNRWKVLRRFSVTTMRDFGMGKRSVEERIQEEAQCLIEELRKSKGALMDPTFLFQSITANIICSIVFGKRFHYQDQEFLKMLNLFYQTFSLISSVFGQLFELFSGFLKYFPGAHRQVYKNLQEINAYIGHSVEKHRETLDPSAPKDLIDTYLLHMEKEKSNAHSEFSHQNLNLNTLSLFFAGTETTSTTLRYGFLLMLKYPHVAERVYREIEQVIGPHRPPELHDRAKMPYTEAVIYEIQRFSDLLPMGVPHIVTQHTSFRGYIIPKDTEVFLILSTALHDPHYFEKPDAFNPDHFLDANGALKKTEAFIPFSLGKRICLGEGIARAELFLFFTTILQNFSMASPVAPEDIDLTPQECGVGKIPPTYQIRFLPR

Cytochrome P450 2B6 [3] = biological target: T3, Cytochrome P450 2B6 (Homo sapiens, UniProt P20813); assay: Inhibition of CYP2B6 in human liver microsomes assessed as enzyme-mediated metabolite formation using bupropion as substrate incubated for 5 mins followed by NADPH addition measured after 30 mins by LC-MS/MS analysis
T3 sequence (P20813 whole entry): T2 sequence (P20813 whole entry)

Cytochrome P450 2C9 [4] = biological target: T4, Cytochrome P450 2C9 (Homo sapiens, UniProt P11712); assay: Inhibition of CYP2C9 in human liver microsomes assessed as enzyme-mediated metabolite formation using diclofenac as substrate incubated for 5 mins followed by NADPH addition measured after 30 mins by LC-MS/MS analysis
CYP2D6 [5] = biological target: T5, CYP2D6 (Homo sapiens, UniProt P10635); assay: Inhibition of CYP2D6 in human liver microsomes assessed as enzyme-mediated metabolite formation at 1 uM using dextromethorphan as substrate incubated for 5 mins followed by NADPH addition measured after 30 mins by LC-MS/MS analysis relative to control; design: scale not given: the % may be the effect or the level left; settings: probe dextromethorphan, read-out: Activity
CYP1A2 [6] = biological target: T1, CYP1A2; assay: Inhibition of CYP1A2 in human liver microsomes assessed as enzyme-mediated metabolite formation at 10 uM using phenacetin as substrate preincubated for 20 mins followed by substrate addition measured after 30 mins in presence of NADPH by LC-MS/MS analysis relative to control; design: scale not given: the % may be the effect or the level left; settings: probe phenacetin, read-out: Activity
CYP1A2 [7] = biological target: T1, CYP1A2; assay: Inhibition of CYP1A2 in human liver microsomes assessed as enzyme-mediated metabolite formation at 30 uM using phenacetin as substrate preincubated for 20 mins followed by substrate addition measured after 30 mins in presence of NADPH by LC-MS/MS analysis relative to control; design: scale not given: the % may be the effect or the level left; settings: probe phenacetin, read-out: Activity
Cytochrome P450 1A2 = biological target: T6, Cytochrome P450 1A2 (Homo sapiens, UniProt P05177); assay: Inhibition of CYP1A2 in human liver microsomes using phenacetin as substrate preincubated for 20 mins followed by substrate addition measured after 30 mins in presence of NADPH by LC-MS/MS analysis
T6 sequence (P05177 whole entry): T1 sequence (P05177 whole entry)

CYP2B6 [8] = biological target: T2, CYP2B6; assay: Inhibition of CYP2B6 in human liver microsomes assessed as enzyme-mediated metabolite formation at 10 uM using bupropion as substrate preincubated for 20 mins followed by substrate addition measured after 30 mins in presence of NADPH by LC-MS/MS analysis relative to control; design: scale not given: the % may be the effect or the level left; settings: probe bupropion, read-out: Activity
Cytochrome P450 2C9 [9] = biological target: T4, Cytochrome P450 2C9; assay: Inhibition of CYP2C9 in human liver microsomes using diclofenac as substrate preincubated for 20 mins followed by substrate addition measured after 30 mins in presence of NADPH by LC-MS/MS analysis
Cytochrome P450 2C19 = Cytochrome P450 2C19 (Homo sapiens, UniProt P33261); assay: Inhibition of CYP2C19 in human liver microsomes using (S)-mephenytoin as substrate preincubated for 20 mins followed by substrate addition measured after 30 mins in presence of NADPH by LC-MS/MS analysis
CYP2D6 [10] = biological target: T5, CYP2D6; assay: Inhibition of CYP2D6 in human liver microsomes assessed as enzyme-mediated metabolite formation at 1 uM using dextromethorphan as substrate preincubated for 20 mins followed by substrate addition measured after 30 mins in presence of NADPH by LC-MS/MS analysis relative to control; design: scale not given: the % may be the effect or the level left; settings: probe dextromethorphan, read-out: Activity
CYP2D6 [11] = biological target: T5, CYP2D6; assay: Inhibition of CYP2D6 in human liver microsomes assessed as enzyme-mediated metabolite formation at 30 uM using dextromethorphan as substrate preincubated for 20 mins followed by substrate addition measured after 30 mins in presence of NADPH by LC-MS/MS analysis relative to control; design: scale not given: the % may be the effect or the level left; settings: probe dextromethorphan, read-out: Activity
CYP3A4 [12] = biological target: T7, CYP3A4 (Homo sapiens, UniProt P08684); assay: Inhibition of CYP3A4 in human liver microsomes assessed as enzyme-mediated metabolite formation at 0.3 uM using midazolam as substrate preincubated for 20 mins followed by substrate addition measured after 30 mins in presence of NADPH by LC-MS/MS analysis relative to control; design: scale not given: the % may be the effect or the level left; settings: probe midazolam, read-out: Activity
CYP3A4 [13] = biological target: T7, CYP3A4; assay: Inhibition of CYP3A4 in human liver microsomes assessed as enzyme-mediated metabolite formation at 10 uM using midazolam as substrate preincubated for 20 mins followed by substrate addition measured after 30 mins in presence of NADPH by LC-MS/MS analysis relative to control; design: scale not given: the % may be the effect or the level left; settings: probe midazolam, read-out: Activity
Cytochrome P450 2B6 [14] = biological target: T3, Cytochrome P450 2B6; assay: Inhibition of human CYP2B6 using bupropion as substrate incubated for 5 mins followed by NADPH addition measured after 30 mins by LC-MS/MS analysis

T5 sequence (P10635 whole entry): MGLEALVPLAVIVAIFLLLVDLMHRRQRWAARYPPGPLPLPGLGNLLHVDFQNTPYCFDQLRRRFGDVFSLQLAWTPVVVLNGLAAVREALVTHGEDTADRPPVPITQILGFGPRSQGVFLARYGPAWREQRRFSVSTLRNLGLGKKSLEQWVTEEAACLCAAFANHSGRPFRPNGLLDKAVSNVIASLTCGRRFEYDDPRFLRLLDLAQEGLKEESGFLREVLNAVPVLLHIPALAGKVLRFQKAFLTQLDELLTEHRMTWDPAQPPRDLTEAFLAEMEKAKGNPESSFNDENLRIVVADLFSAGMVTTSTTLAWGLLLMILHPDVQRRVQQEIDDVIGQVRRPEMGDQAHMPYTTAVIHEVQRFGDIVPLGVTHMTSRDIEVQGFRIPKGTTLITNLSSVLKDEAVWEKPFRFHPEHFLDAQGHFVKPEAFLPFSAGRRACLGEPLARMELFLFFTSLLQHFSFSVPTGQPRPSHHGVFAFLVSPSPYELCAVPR
T4 sequence (P11712 whole entry): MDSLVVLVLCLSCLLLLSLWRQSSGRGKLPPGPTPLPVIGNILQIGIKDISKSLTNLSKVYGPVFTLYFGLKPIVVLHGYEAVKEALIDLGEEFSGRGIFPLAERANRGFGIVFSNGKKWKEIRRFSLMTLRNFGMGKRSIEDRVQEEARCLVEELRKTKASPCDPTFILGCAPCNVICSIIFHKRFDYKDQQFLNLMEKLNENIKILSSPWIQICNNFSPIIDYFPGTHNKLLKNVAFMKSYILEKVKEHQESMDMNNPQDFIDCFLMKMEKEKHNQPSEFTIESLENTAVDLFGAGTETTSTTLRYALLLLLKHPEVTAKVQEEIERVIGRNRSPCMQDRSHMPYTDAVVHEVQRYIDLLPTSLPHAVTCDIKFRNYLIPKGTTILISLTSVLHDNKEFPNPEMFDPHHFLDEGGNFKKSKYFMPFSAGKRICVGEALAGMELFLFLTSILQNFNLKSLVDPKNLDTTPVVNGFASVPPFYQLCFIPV
T7 sequence (P08684 whole entry): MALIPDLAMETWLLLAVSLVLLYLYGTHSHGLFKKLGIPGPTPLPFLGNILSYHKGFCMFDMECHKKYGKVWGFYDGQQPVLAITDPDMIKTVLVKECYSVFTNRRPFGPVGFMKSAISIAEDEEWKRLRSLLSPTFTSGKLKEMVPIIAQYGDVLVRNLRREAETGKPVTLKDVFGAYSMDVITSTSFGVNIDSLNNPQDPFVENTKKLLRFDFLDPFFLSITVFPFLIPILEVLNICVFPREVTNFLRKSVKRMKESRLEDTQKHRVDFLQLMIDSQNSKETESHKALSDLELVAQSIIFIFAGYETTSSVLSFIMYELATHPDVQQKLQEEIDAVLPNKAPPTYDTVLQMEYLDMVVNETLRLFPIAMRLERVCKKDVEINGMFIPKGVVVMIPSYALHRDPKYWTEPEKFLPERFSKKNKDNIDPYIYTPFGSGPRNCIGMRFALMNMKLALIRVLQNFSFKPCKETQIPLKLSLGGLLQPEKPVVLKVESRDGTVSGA
Cytochrome P450 2C19, sequence (P33261 whole entry): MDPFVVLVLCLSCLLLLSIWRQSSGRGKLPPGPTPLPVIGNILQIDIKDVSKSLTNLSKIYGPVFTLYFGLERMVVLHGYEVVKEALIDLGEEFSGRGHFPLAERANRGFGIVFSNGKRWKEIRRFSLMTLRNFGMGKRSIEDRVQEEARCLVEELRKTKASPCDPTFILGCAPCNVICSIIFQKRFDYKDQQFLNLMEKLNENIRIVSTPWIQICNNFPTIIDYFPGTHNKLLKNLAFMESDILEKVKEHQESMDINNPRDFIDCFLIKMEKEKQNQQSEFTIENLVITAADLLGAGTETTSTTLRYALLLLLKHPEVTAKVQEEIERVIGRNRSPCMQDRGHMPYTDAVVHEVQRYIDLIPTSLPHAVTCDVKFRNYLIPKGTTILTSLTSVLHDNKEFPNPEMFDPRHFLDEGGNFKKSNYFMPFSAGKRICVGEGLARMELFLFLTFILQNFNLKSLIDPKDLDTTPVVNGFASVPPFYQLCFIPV

activity at 0.5 h, 1 µM (CYP1A2 [1]): 79.2% | activity at 0.5 h, 1 µM (CYP2B6 [2]): 63.2% | IC50 (Cytochrome P450 2B6 [3]): 15.4 µM | IC50 (Cytochrome P450 2C9 [4]): 13.6 µM | activity at 0.5 h, 1 µM (CYP2D6 [5]): 75.9% | activity at 0.5 h, 10 µM (CYP1A2 [6]): 59% | activity at 0.5 h, 30 µM (CYP1A2 [7]): 42.8% | IC50 (Cytochrome P450 1A2): 19.6 µM | activity at 0.5 h, 10 µM (CYP2B6 [8]): 54.3% | IC50 (Cytochrome P450 2C9 [9]): 9.9 µM | IC50 (Cytochrome P450 2C19): 3.6 µM | activity at 0.5 h, 1 µM (CYP2D6 [10]): 92.2% | activity at 0.5 h, 30 µM (CYP2D6 [11]): 80.1% | activity at 0.5 h, 0.3 µM (CYP3A4 [12]): 88.9% | activity at 0.5 h, 10 µM (CYP3A4 [13]): 110% | IC50 (Cytochrome P450 2B6 [14]): 6.2 µM | inhibition (INH) (Cytochrome P450 2B6 [14]; human, 0.5 h): Dose-dependent effect
Compound: CCCCCCCC(=O)CCc1ccc(O)c(OC)c1
